Results published in US9387221B2, “SDF-1 binding nucleic acids and the use thereof in cancer treatment” (NOXXON Pharma AG, priority 2010, dated 2016).

Tested on: biotinylated human D-SDF-1
Experiment: Competitive pull-down binding assay
Conditions: aptamer level; reference 192-A10-001
Experimental: In order to compare different D-SDF-1 binding aptamers, a competitive ranking assay was performed. For this purpose the most affine aptamer available was radioactively labeled (see above) and served as reference. […] An excess of de- and renatured non-labeled D-RNA aptamer variants was added to different concentrations (e.g. 2, 10, and 50 nM) with the labeled reference aptamer to parallel binding reactions. The aptamers to be tested competed with the reference aptamer for target binding, thus decreasing the binding signal in dependence of their binding characteristics.

| Sequence | binding affinity in competitive pull-down binding assay vs. 192-A10-001 |
| --- | --- |
| AGCGUGAAAGUAACACGUAAAAUGAAAGGUAACCACGCU (Made as D-RNA aptamer and L-RNA Spiegelmer, tested form not given here, further chemistry not given here) [191-A6] | Weaker binding affinity |
| AGCGUGAAGGGGUUAGGGCUCGAAGUCGGCUGACACGCU (Made as D-RNA aptamer and L-RNA Spiegelmer, tested form not given here, further chemistry not given here) [191-A5] | Much weaker binding affinity |
| AGCGUGGUGUGAUCUAGAUGUAAUGGCUGAUCCUAGUCAGGUGCGCU (chemistry not fully specified) [193-F2-001] | superior binding |
| AGCGUGGUGUGAUCUAGAUGUAGUGGCUGAUCCUAGUCAGGUACGCU (chemistry not fully specified) [193-C2-001] | superior binding |
| CGUGCGCUUGAGAUAGGGGUUAGGGCUUAAAGUCGGCUGAUUCUCACG (Made as D-RNA aptamer and L-RNA Spiegelmer, tested form not given here, further chemistry not given here) [190-A3-001] | weaker binding affinities |

Same assay, conditions: reference 191-D5-001

| Sequence | binding affinity in competitive pull-down binding assay vs. 191-D5-001 |
| --- | --- |
| CGGGCGAGGUUAGGGCUAGAAGUCGGUCGACCG (Made as D-RNA aptamer and L-RNA Spiegelmer, tested form not given here, further chemistry not given here) [191-D5-004] | reduced binding affinity |

Same assay, conditions: reference 191-D5-007

| Sequence | binding affinity in competitive pull-down binding assay vs. 191-D5-007 |
| --- | --- |
| CCCGGGUUAGGGCUAGAAGUCGGCGGG (chemistry not fully specified) [191-D5-029] | reduced binding affinity |
| CCGCGGUUAGGGCUAGAAGUCGGGCGG (chemistry not given here) [191-D5-017] | reduced binding affinity |
| CGCCGGGGUUAGGGCUAGAAGUCGGCCGGCG (chemistry not fully specified) [197-B2-006-31b] | the same as shown for 191-D5-007 and 197-B2-006 |
| CGGCGGGUUAGGGCUAGAAGUCGGCGCCG (chemistry not fully specified) [191-D5-024-29a] | identical binding affinity to SDF-1 as 191-D5-007 |

Same assay, conditions: vs. 192-A10-001 and 192-A10-008

| Sequence | binding affinity of derivatives of 192-A10-001 in competitive pull-down binding assay |
| --- | --- |
| AAAGCAACAUGUCAAUGAAAGGUAGC (chemistry not fully specified) [192-A10-007] | reduced binding affinity |
| CCCCAAAGCAACAUGUCAAUGAAAGGUAGCGGGG (aptamer; chemistry not given here) [192-A10-023] | weaker, much weaker or very much weaker binding affinity |
| CGCGAAAGCAACAUGUCAAUGAAAGGUAGCCGUG (aptamer; chemistry not given here) [192-A10-019] | weaker, much weaker or very much weaker binding affinity |
| CGUGAAAGCAACAUGUCAAUGAAAGGUAGCCGCG (aptamer; chemistry not given here) [192-A10-016] | weaker, much weaker or very much weaker binding affinity |
| CUGUGAAAGCAACAUGUCAAUGAAAGGUAGCCGCAG (aptamer; Made as D-RNA aptamer and L-RNA Spiegelmer, tested form not given here, further chemistry not given here) [192-A10-002] | without reduction of binding affinity |
| GAAAGCAACAUGUCAAUGAAAGGUAGCC (chemistry not fully specified) [192-A10-006] | reduced binding affinity |

Same assay, conditions: vs. 193-G2-001 and 193-G2-012

| Sequence | binding affinity of derivatives of 193-G2-001 and 193-C2-001 in competitive pull-down binding assay |
| --- | --- |
| CGUGGUGUGAUCUAGAUGUAGUGGCUGAUCCUAGUCAGGUACG (chemistry not fully specified) [193-C2-003] | reduced binding affinity |
